Reference: article PMC9845330 (Communications Biology, 2023)
Non-standard residues stand in square brackets, D forms with d. Residues, ends and D or L forms follow the SMILES beside them. *: point of attachment. X1 = O=C(CCCC[C@@H]1SC[C@@H]2NC(=O)N[C@@H]21)NCCCOCCOCCOCCCN*; PEG12 = NCCOCCOCCOCCOCCOCCOCCOCCOCCOCCOCCOCCOCCC(=O)O

How the values were obtained:
H1299 cells = assay: Cell binding and internalization by flow cytometry, relative (normalized) uptake of peptide-streptavidin-phycoerythrin; assay type: cell-based, human
Protocol: MGS4 was initially selected by phage display biopanning of a peptide library on live cells. […] As such, multivalent binding is often required. To ascertain whether multivalent binding is required for MGS4 internalization, monomeric (MGS4_V2) and tetrameric (MGS4_V1) peptides were synthesized and labeled as described (Supplementary Figure 1). After incubation of varying peptide concentrations on live cells, surface-bound peptide was removed by low pH washes, as well as trypsinization. Relative internalization was measured by flow cytometry to determine an EC50 value which represents the concentration of peptide producing half-maximal internalization. This measurement is dependent on the affinity of the peptide for its cellular target and the rate of internalization. This is a more accurate representation of the biological situation and useful in evaluating the peptides as drug delivery agents. As expected for receptor-mediated endocytosis, uptake of MGS4 is saturable with increasing concentration.
Fig. 1 Monomeric and tetrameric MGS4 have similar binding, internalization and subcellular location. a Binding and internalization of tetrameric MGS4_V1 and monomeric MGS4_V2 on live H1299 cells in culture. Cells were incubated with the peptide conjugated to streptavidin-phycoerythrin for 1 h at 37 °C. Non-internalized peptide was removed and the cells were analyzed by flow cytometry. b H1299 cells were incubated with MGS4_V1 or MGS4_V2 conjugated to streptavidin-Alexa Fluor 555 (red) for 1 h, washed, fixed and counterstained with WGA-Alexa Fluor 488 (green, cell membrane) and DAPI (blue, nuclei) and analyzed by fluorescence microscopy. The scale bar represents 20 µm. MGS4_V1 and MGS4_V2 internalize to a similar degree and localize to a similar destination. c Truncated monomeric MGS4 peptides have similar EC50 as the parental full-length peptide. Individual measurements are shown. The mean is shown as an “X” and black error bars represent standard error for a minimum of three experimental replicates (SEM). All original binding data and nonlinear regression analysis of the data are included in the supplementary materials.
Biotinylated peptide was conjugated to streptavidin-R-phycoerythrin or streptavidin-Alexa Fluor 647 (1:1 molar ratio) for 30 min. The open binding sites on streptavidin were quenched with RPMI 1640 and diluted to the indicated concentration. Tumor cells were grown to 90% confluency in a 12 well plate, then incubated with 500 µl peptide-dye conjugate at 37 °C. After 1 h, peptide was removed, and the cells were washed 3x with PBS (137 mM NaCl, 2.7 mM KCl, 10 mM Na2HPO4, 1.8 mM KH2PO4, pH 7.4), 2x with 0.1 M HCl-glycine pH2.2 in 0.9% NaCl, and 1x PBS rinse. Cells were removed by trypsinization. Flow cytometry was performed on a BD FACSCelesta, and data were analyzed on Flowing software. Cells were gated based on the forward and side scatter to include only viable cells and a minimum of 10,000 events were counted. A region containing <5% of the cells in the negative control was established, and relative peptide uptake by the mean fluorescence intensity of that population. For absolute peptide uptake per cell, a standard curve was generated using Quantum™ Alexa Fluor 647 microspheres (Bangs Laboratory, Fishers, IN). A representative linear regression showing the correlation of molecule equivalents soluble fluorophores (MESF) vs the mean fluorescence intensity (MFI) is shown in Supplemental Figure 6. Cells were gated based on the forward and side scatter to include only viable cells and a minimum of 10,000 events were counted. MFI was determined at 50% at peak height. Molecules internalized per cell were determined by the standard curve relating MESF to MFI and divided by the number dye molecules/MGS conjugate. An example is shown in supplemental Figure 7. GraphPad Prism® was used for non-linear regression curve fitting to calculate an EC50. […]

H1299 xenograft tumor = assay: Tumor homing by near infrared imaging; assay type: in vivo, mouse
Text: Animal experiments were approved by SRI International’s Institutional Animal Care and Use committee (Animal Welfare Assurance Number A3025-01, protocol 14008). H2009 cells (10^6) or H1299 cells (10^6) were implanted subcutaneously on the flank of female Nu/Nu mice (Jackson Laboratory, Bar Harbor, ME). When tumors reached 100 mm^3, in vivo experiments were initiated. For imaging, the indicated peptides were conjugated directly to Alexa Fluor 750 near-infrared dye (Supplemental Fig. 1). Four animals per group were used. Peptides were injected into the lateral tail vein for a total dose 15 µgs/mouse delivered in 100 µL. At set period of times, animals were anesthetized and imaged on an IVIS® (Perkin Elmer). Regions of interest were drawn around the tumor and the total radiant efficiency was measured. For therapeutic experiments, we chose to use the H2009 tumor model as it has a higher tumor take rate and more consistent growth rate than the H1299 model. Biotinylated MGS4_V8 (N = 9) or MGS4_V6 (N = 8) were conjugated to streptavidin-saporin and administered via tail-vein injection (7.5 µg/100 µl) 2x/week for 2.5 weeks for a total of 5 treatments. Nontreated animals (N = 8) served as the control. Tumor size was measured with calipers every other day and volume was calculated as (π/6)(l*w)^3/2. Statistical analysis was performed on GraphPad Prism®.
Supplemental Figure 1. […]
-Qdot605, streptavidin-R- phycoerythrin, and streptavidin-saporin. b) For NIR imaging experiments, Alexa Fluor 750 was directly conjugated to the peptide by the reaction of maleimide modified dye with a thiol containing MGS4_V8 peptide. c ) The structure of the monomeric MGS4 used for serum stabilities. […]
Supplemental Figure 5. MGS4_V8 homes to H12 99 xenograft tumor after systemic delivery.
H1299 tumor bearing nude mice ( N=4 ) were injected I.V. with MGS4_V8 or MGS4_V6 conjugated to NIR dye Alexa Fluor 750. At 24, 48, and 72 hours post injection, mice were anesthetized and imaged on an IVIS® (Perkin E lme r ) to measure total radiant efficiency in each tumor. MGS4_V8 accumulates in tumor ≈3-fold better than control peptide, MGS4_V6. MGS4_V6 accumulation is statistically no different than […]
untreated tumo rs. […]
A standard curve was generated using Quantum ™ Alexa Fluor 647 microspheres (Bangs Laboratory, Fishers, IN). A representative linear regression showing the correlation of molecule equivalents soluble fluorophores (MESF) vs the mean fluorescence intensity (MFI) is shown. The MFI is determined at 50% […]
Supplemental Figure 7. Example of flow cytometry data: MGS4_V10 Uptake on H1993 Cells .
The gating strategy, cell population data , and MFI determination for an example binding experiment is shown. Cells were gated by forward and side scatter to exclude nonviable cells or cell clusters as shown.
Individual dot plots and histograms are shown for a concentration range of 0.1 nM – 50 nM. The MFI is determined at 50% peak height. Molecules internalized per cell were determined by the standard curve relating MESF to MFI and divided by the number dye molecules/MGS conjugate.

Molecule | Bmax (best-fit) (H1299 cells; Supplementary Table 2, normalized binding) | Total Radiant Efficiency (H1299 xenograft tumor; 24 h, Mouse 1) | Total Radiant Efficiency (H1299 xenograft tumor; 24 h, Mouse 2) | Total Radiant Efficiency (H1299 xenograft tumor; 24 h, Mouse 3) | Total Radiant Efficiency (H1299 xenograft tumor; 24 h, Mouse 4) | Total Radiant Efficiency (H1299 xenograft tumor; 48 h, Mouse 1) | Total Radiant Efficiency (H1299 xenograft tumor; 48 h, Mouse 2) | Total Radiant Efficiency (H1299 xenograft tumor; 48 h, Mouse 3) | Total Radiant Efficiency (H1299 xenograft tumor; 48 h, Mouse 4) | Total Radiant Efficiency (H1299 xenograft tumor; 72 h, Mouse 1) | Total Radiant Efficiency (H1299 xenograft tumor; 72 h, Mouse 2) | Total Radiant Efficiency (H1299 xenograft tumor; 72 h, Mouse 3) | Total Radiant Efficiency (H1299 xenograft tumor; 72 h, Mouse 4) | fold tumor accumulation versus control peptide MGS4_V6 (H1299 xenograft tumor; H1299 tumors, 24-72 h, Alexa Fluor 750 conjugate, N=4) | EC50 (nM) (H1299 cells; H1299 cells, 1 h at 37 °C, normalized uptake, one-site specific binding fit, Average ± SEM, minimum 3 replicates)
CC(=O)N[C@@H](Cc1ccccc1)C(=O)N[C@@H](Cc1c[nH]cn1)C(=O)N[C@@H](C)C(=O)N[C@H](C(=O)N1CCC[C@H]1C(=O)N[C@@H](CCC(N)=O)C(=O)N[C@@H](CO)C(=O)N[C@@H](Cc1ccccc1)C(=O)N[C@@H](Cc1ccc(O)cc1)C(=O)N[C@H](C(=O)NCCOCCOCCOCCOCCOCCOCCOCCOCCOCCOCCOCCOCCC(=O)N[C@@H](CCC(=O)NCCCOCCOCCOCCCNC(=O)CCCC[C@@H]1SC[C@@H]2NC(=O)N[C@@H]21)C(N)=O)[C@@H](C)O)C(C)C [MGS4_V8] (Ac-FHAVPQSFYT[PEG12]E(X1)-NH2) | 1.423 | 1.32e+009 | 1.83e+009 | 9.57e+008 | 2.96e+009 | 9.13e+008 | 9.76e+008 | 7.72e+008 | 1.71e+009 | 9.42e+008 | 7.37e+008 | 1.06e+009 | 1.35e+009 | ≈ 3 fold | 
*HAVPQSFYT** [MGS4_V6] |  | 7.74e+008 | 4.6e+008 | 7.58e+008 | 3.13e+008 | 5.44e+008 | 3.19e+008 | 3.39e+008 | 3.19e+008 | 5.46e+008 | 3.28e+008 | 3.61e+008 | 4.28e+008 |  | Not Detected^2
